Laboratory results taken from the supplement of paper PMC6965134.
± gives the standard deviation of the averaged measurements.

Experiment: TIMS collisional cross section (CCS, N2) of the lipid ion; higher = larger ion cross section
Conditions: ionization mode: positive, one isomer drawn

SMILES | TIMS collisional cross section (sample type: Liver) [Å²] | TIMS collisional cross section (sample type: plasma) [Å²] | TIMS collisional cross section (sample type: HeLa) [Å²]
CCCCCC/C=C\CCCCCCCC(=O)OC[C@H](COP(=O)(O)OCCN)OC(=O)CCCCCCCCCCCCCCC [PE 16:1@_16:0] (ion (formula + adduct): [C37H72NO8P+H] 1+) | 268.7 | – | –
CCCCCC/C=C\CCCCCCCC(=O)O[C@@H](CO)COC(=O)CCCCCCCCCCCCCCC [DG 16:0_16:1_0:0] (ion (formula + adduct): [C35H66O5+NH4] 1+) | 254.9 | 257 | 254.9
CCCCCCCC/C=C/CCCCCCCC(=O)OC[C@H](COP(=O)(O)OCCN)OC(=O)CCCCCCC/C=C/CCCCCCCC [PE 18:1_18:1] (ion (formula + adduct): [C41H78NO8P+H] 1+) | – | – | 279.2 ± 0.71
CCCCCCCCCCCCC/C=C/[C@@H](O)[C@H](CO[C@@H]1OC(CO)[C@@H](O[C@@H]2OC(CO)[C@H](O)[C@H](O)C2O)[C@H](O)C1O)NC(=O)CCCCCCCCCCCCC (stereo not given in full) [GlcCer d18:1_14:0@] (ion (formula + adduct): [C44H83NO13+H] 1+) | – | – | 297.2
CCCCC/C=C\C/C=C\C/C=C\C/C=C\C/C=C\CCC(=O)O[C@H](COC(=O)CCCCCCCCCCCCCCCCC)COP(=O)([O-])OCC[N+](C)(C)C [PC 18:0@_22:5] (ion (formula + adduct): [C48H86NO8P+H] 1+) | – | 299.3 ± 0.42 | 298.9
CCCCCCCCCC/C=C\CCCCCCCCCC(=O)OC[C@@H](O)COP(=O)([O-])OCC[N+](C)(C)C [LPC 22:1_0:0] (ion (formula + adduct): [C30H60NO7P+H] 1+) | – | 246.6 | 246.1
CCCCC/C=C\C/C=C\CCCCCCCC(=O)OC[C@H](CO)OC(=O)CCCCCCCCCCCCCCCCCCCCC [DG 18:2_22:0_0:0] (ion (formula + adduct): [C43H80O5+NH4] 1+) | 279.2 | – | –
CCCCCCCCCCCCCCCCOC[C@@H](O)COP(=O)([O-])OCC[N+](C)(C)C [LPC O- 16:0] (ion (formula + adduct): [C24H52NO6P+H] 1+) | – | 230.6 | 230.5
CCCC/C=C\CCCCCCCC(=O)O[C@H](COC(=O)CCCCCCCCCCCCC)COC(=O)CCCCCCCCCCCCCCC [TG 14:0_14:1_16:0] (ion (formula + adduct): [C47H88O6+NH4] 1+) | 299.8 | – | –
CCCCC/C=C\C/C=C\C/C=C\CCCCC(=O)O[C@H](COC(=O)CCCCCCC/C=C\CCCCCC)COP(=O)(O)OCCN [PE 16:1@_18:3] (ion (formula + adduct): [C39H70NO8P+H] 1+) | 266 | – | –
CC/C=C\C/C=C\C/C=C\C/C=C\C/C=C\CCCC(=O)OC[C@@H](COC(=O)CCCCCCCCCCCCC)OC(=O)CCCCCCC/C=C\CCCCCC [TG 14:0_16:1_20:5] (ion (formula + adduct): [C53H90O6+NH4] 1+) | – | – | 310.6
CCCCCCCCCCCCCCCC(=O)O[C@H](COC(=O)CCCCCCCCCCCCC)COP(=O)([O-])OCC[N+](C)(C)C [PC 14:0@_16:0] (ion (formula + adduct): [C38H76NO8P+H] 1+) | – | – | 279.2
CCCCC/C=C\C/C=C\CCCCCCCC(=O)OC[C@H](CO)OC(=O)CCCCCCC/C=C\C/C=C\CCCCC [DG 18:2_18:2_0:0] (ion (formula + adduct): [C39H68O5+NH4] 1+) | 256.6 | 257.1 | –
CCCCCCCCCCCCCCCCC(=O)OC[C@@H](COC(=O)CCCCCCCCCCC)OC(=O)CCCCCCCCCCCCCCC [TG 12:0_16:0_17:0] (ion (formula + adduct): [C48H92O6+NH4] 1+) | 304.5 | – | –

Continued, values first:

TIMS collisional cross section (sample type: Liver) [Å²] | TIMS collisional cross section (sample type: plasma) [Å²] | TIMS collisional cross section (sample type: HeLa) [Å²] | SMILES
342.9 | 343 | – | CCCCCCCC/C=C\CCCCCCCCCCCC(=O)OC[C@@H](COC(=O)CCCCCCC/C=C\CCCCCCCC)OC(=O)CCCCCCCCC/C=C\CCCCCCCC [TG 18:1_20:1_22:1] (ion (formula + adduct): [C63H116O6+NH4] 1+)
322.4 | – | 322.3 | CCCCCCCC/C=C\CCCCCCCCCC(=O)OC[C@@H](COC(=O)CCCCCCCCCCCCC)OC(=O)CCCCCCC/C=C\CCCCCCCC [TG 14:0_18:1_20:1] (ion (formula + adduct): [C55H102O6+NH4] 1+)
315.2 | – | – | CCCCCCC/C=C\CCCCCCCC(=O)OC[C@@H](COC(=O)CCCCCCCCCCCCCCC)OC(=O)CCCCCCCCCCCCCCC [TG 16:0_16:0_17:1] (ion (formula + adduct): [C52H98O6+NH4] 1+)
324.7 | – | – | CCCCC/C=C\C/C=C\CCCCCCCCCC(=O)OC[C@@H](COC(=O)CCCCCCC/C=C\CCCCCC)OC(=O)CCCCCCC/C=C\CCCCCCCC [TG 16:1_18:1_20:2] (ion (formula + adduct): [C57H102O6+NH4] 1+)
312.2 | – | 310.8 | CCCCC/C=C\CCCCCCCC(=O)OC[C@H](COC(=O)CCCCCCC/C=C\CCCCCCCC)OC(=O)CCCCCCC/C=C\CCCCCC [TG 15:1_16:1_18:1] (ion (formula + adduct): [C52H94O6+NH4] 1+)
319.7 | – | 319.7 | CCCCC/C=C\C/C=C\CCCCCCCC(=O)OC[C@@H](COC(=O)CCCCCCC/C=C\CCCCCC)OC(=O)CCCCCCCCCCCCCCCCC [TG 16:1_18:0_18:2] (ion (formula + adduct): [C55H100O6+NH4] 1+)
– | 317.33 ± 0.31 | – | CCCCCCCCCCCCCCCCCC(=O)OC[C@@H](COC(=O)CCCCCCCCCCCCCC)OC(=O)CCCCCCCCCCCCCCC [TG 15:0_16:0_18:0] (ion (formula + adduct): [C52H100O6+NH4] 1+)
– | 314.45 ± 0.21 | – | C(OC(=O)CCCCCCCCCCCCCCC)[C@]([H])(OC(CCCCCCCCCCCCCCC)=O)COC(CCCCCCCCCCCCCCC)=O [TG 16:0_16:0_16:0] (ion (formula + adduct): [C51H98O6+NH4] 1+)
333 | 333.1 | – | CCCCCCCC/C=C\CCCCCCCC(=O)O[C@H](COC(=O)CCCCCCCCCCCCCCC)COC(=O)CCCCCCCCCCCCCCCCCCCC [TG 16:0_18:1_21:0] (ion (formula + adduct): [C58H110O6+NH4] 1+)
319.5 | – | – | CC/C=C\C/C=C\C/C=C\C/C=C\C/C=C\CCCC(=O)OC[C@@H](COC(=O)CCCCCCC/C=C\C/C=C\CCCCC)OC(=O)CCCCCCC/C=C\C/C=C\C/C=C\CC [TG 18:2_18:3_20:5] (ion (formula + adduct): [C59H94O6+NH4] 1+)
